Experiment: in vitro
Details: human, hela cells, % viability

Structure (SMILES) | viability at 28.5 h, 10 µM [%] | viability at 28.5 h, 10 µM (bulk resorufin, single well) [%]
Cc1nn(C)c(C)c1CN(C)C(=O)c1cc(-c2ccc(F)cc2)on1 [CBK281587] | 82.2 | 
FC(F)(F)Oc1ccc(-c2c[nH]c([C@@H]3COCCN3C3CCNCC3)n2)cc1 [CBK289312] | 97.8 | 
C(=C\c1ccccc1)/CN1CCN(c2ncccn2)CC1 [CBK261909] | 92.3 | 
CN1CCCC1CCOc1ncccc1OCc1ccccc1 (stereo not drawn) [CBK036313] | 93.1 | 
O=C1NC2=C(C(=O)N(CC3CCCO3)C2)C(c2ccccc2)N1 (stereo not drawn) [CBK283494] | 100 | 
Cc1nc(C)c(C(=O)Nc2nn(C)c3cccc(N4CCOCC4)c23)o1 [CBK306534] | 83.8 | 
CC(C)(C)CNc1ccc(S(=O)(=O)N2CCOC2=O)cc1 [CBK028347] | 113 | 
CCN(CC)C(=O)CN1C(=O)N2CCCN=C2c2ccccc21 [CBK284398] | 84.4 | 
Fc1ccc(-c2cc(Nc3ccccc3)ncn2)cc1F [CBK090913] | 105 | 
COc1c[nH]c(C(=O)NC(CCn2ccnc2)c2ccccc2)cc1=O (stereo not drawn) [CBK306743] | 94 | 
CC1(C)NC(C)(C)C(=N\O)/C(=N\O)C/1=N\O [CBK261512] | 110 | 
O=C(CCc1ccc(O)c(O)c1)NNC(=S)Nc1ccccc1C(F)(F)F [CBK267104] | 94.2 | 
CC(=O)Nc1cccc(CN2CCCC2CC(O)c2ccccc2)c1 (stereo not drawn) [CBK305136] | 104 | 
CCN1CCN(C(=O)c2cccc(N(C)C)c2)C(Cc2ccc(-c3ccncc3)cc2)C1=O (stereo not drawn) [CBK285813] | 101 | 
CCn1nnc(C2=CCCN(C)C2)n1 [CBK034628E] | 104 | 
Nc1cccnc1OCCN1CCN(CC(=O)N2CCCCc3ccccc32)CC1 [CBK007764] | 95.1 | 
CCn1c(C(C)C)nc2cc(NC(=O)Cc3c(C)noc3C)ccc21 [CBK281527] | 90.3 | 
O=S(=O)(Nc1ccc(C(O)(C(F)(F)F)C(F)(F)F)cc1)c1ccc(N2CCOCC2)nc1 [CBK062100] | 94.9 | 
CCN(CC)C(=O)CCCc1[nH]nc(O)c1Cc1c(Cl)cccc1Cl [CBK081524] | 89 | 
Cc1sc(NC(=S)NC(=O)Cc2cccc3ccccc23)c(C(N)=O)c1C [CBK266344] | 91.4 | 
O=C(CS(=O)(=O)c1ccccc1)Nc1ccc(OCc2ccccc2)cc1 [CBK269421] | 98.4 | 
O=C(Cn1cnnn1)N1CCc2ccccc21 [CBK200367] | 97.4 | 
Cc1nn(C)c(C)c1CN(C)C(=O)CCC(C)N1CCCC1 (stereo not drawn) [CBK282001] | 101 | 

Structure (SMILES) | viability at 28.5 h, 10 µM [%] | viability at 28.5 h, 10 µM (bulk resorufin, single well) [%]
CCSC(SCC)c1ccnn1-c1ccccc1 [CBK019332] | 87.1 | 
CC(C)C1SC(=NC2CC3CCC2C3)N(C)C1=O (stereo not drawn) [CBK076727] | 90.6 | 
CN(C)S(=O)(=O)Nc1ccc2c(ccn2Cc2ccccc2)c1 [CBK155765] | 86.6 | 
O=[N+]([O-])c1ccc(N2CCN(S(=O)(=O)c3ccccc3)CC2)cc1Sc1cccc2cccnc12 [CBK263821] | 100 | 
O=C(c1ccccc1)N1CCC(c2cccc(Cc3ccccc3Cl)n2)CC1 [CBK286085] | 88.2 | 
O=C(c1cc2c(s1)CCCC2)N1CCCCC1c1nnc(-c2nccc3ccccc23)o1 (stereo not drawn) [CBK285577] | 61 | 
CC(C)c1cccc(-n2cc(O)c(C(=O)NCCCn3cccn3)n2)c1 [CBK305360] | 113 | 
NS(=O)(=O)c1cc(C(=O)NCCc2ccc(F)cc2)c(Cl)cc1Cl [CBK288512] | 96.7 | 
CC(=O)Nc1ccc(S(=O)(=O)N2CCN(C(=O)c3cccnc3)CC2)cc1 [CBK264279] | 96.5 | 
CCn1nc(C)c(C2NC(=O)c3ccccc3N2)c1C (stereo not drawn) [CBK288214] | 88.6 | 
Cc1ccccc1CN1CCC(NC(=O)Cn2cc(Br)ccc2=O)CC1 [CBK305716] | 93.1 | 
O=C(c1ccco1)c1cnc2ccccn2c1=O [CBK010791] | 109 | 
CCc1[nH]nc2c1C(C1C=CCCC1)C(C#N)=C(N)O2 (stereo not drawn) [CBK270236] | 92.9 | 
COC(=O)c1c(NC(=O)C(=O)NCc2ccccn2)sc2c1CCCC2 [CBK269505] | 95.2 | 
CC1CNCCN1C(=O)c1cnn(-c2cccc(Cl)c2)c1 (stereo not drawn) [CBK304238] | 94.1 | 
COc1ccc(C(=O)NCC(=O)Nc2ccc(N3CCCCC3)cc2)cc1OC [CBK295199] | 94.3 | 
CNC(=O)N1CC(=O)N(Cc2cccc(Cl)c2)C1=O [CBK001918] | 104 | 
O=C(CCCC(=O)N1CCCC1)N1CCCC1 [CBK006992] | 108 | 
CCNC(=S)N[C@H]1CC[C@@]2(Cc3ccc(OC)cc3)CCN(C)[C@H]2C1 [CBK004257] | 101 | 
O=C1NC2(CC3CCC2CC3C(=O)NC2CC2)Oc2ccccc21 (stereo not drawn) [CBK284352] | 99.6 | 
COCCn1ccnc1C1CCCN(C(=O)COc2ccccc2Cl)C1 (stereo not drawn) [CBK307211] | 90.2 | 
COc1ccc(SCCCCN2CCC3(CC2)OCCc2c3[nH]c3ccccc23)cc1 [CBK113464T] | 0.266 | 
O=C(C1CC1)N1CCC(Cn2nc(-c3cccs3)ccc2=O)CC1 [CBK284039] | 101 | 

Structure (SMILES) | viability at 28.5 h, 10 µM [%] | viability at 28.5 h, 10 µM (bulk resorufin, single well) [%]
C[C@@H]1[C@H]2Cc3ccc(O)cc3[C@]1(C)CCN2Cc1ccoc1 [CBK005262G] |  | 103
CN(c1ncc(Br)cc1C(=O)NC1CCCCC1)S(C)(=O)=O [CBK076531] | 111 | 
N#C/C(=C\c1cn(Cc2ccc(Cl)cc2Cl)nc1-c1ccccc1)c1nc2ccccc2[nH]1 [CBK262545] | 87.3 | 
CC(C)(C)c1cc(CN2CCN(CCO)CC2)cc(C(C)(C)C)c1O [CBK261753] | 95.4 | 
c1cc2c(cc1CCNCc1ccc3c(c1)OCO3)OCO2 [CBK074501G] |  | 98.9
Cc1nccn1-c1ccc(NC(=O)c2ccn(C(F)F)n2)cc1 [CBK281410] | 110 | 
O=C(Nc1cccnc1)N1CCN(c2ccc(F)cc2)CC1 [CBK156427] | 92.7 | 
CN(C)S(=O)(=O)c1ccc(C(=O)Nc2ccc(N3CCOCC3)c(Cl)c2)cc1 [CBK267383] | 87.7 | 
O=C(O)COc1ccc(C=C2C(=O)c3ccccc3C2=O)cc1Cl [CBK263857] | 87.3 | 
Cc1cc(CN2CCC(C(=O)c3ccc(F)cc3)CC2)no1 [CBK149121] | 89.2 | 
C=C(C)CN1CCN(CC(CC(=O)NCc2ccccc2)C(=O)O)CC1 (stereo not drawn) [CBK286823] | 98.1 | 
O=C(/C=C/c1ccccc1)Nc1cccc(C(=O)O)c1 [CBK287193] | 94 | 
O=C1NCCN1C1CCN(c2ncnc3ccccc23)CC1 [CBK304896] | 83.1 | 
CC[C@H]1CN(C(=O)C2CC2)CC[C@H]1CC(=O)N(C)CC#N [CBK289132] | 85.9 | 
CCC(NC(=O)c1cn(CCOC)c2ccccc12)c1ccncc1 (stereo not drawn) [CBK305186] |  | 95.7
Cc1cc(C)n2ncc(C(=O)N3CCCCC3c3ccccn3)c2n1 (stereo not drawn) [CBK307257] | 90.4 | 
CCOC(=O)c1c(/N=C/c2cc(I)cc(I)c2O)sc2c1CCN(Cc1ccccc1)C2 [CBK262246] | 106 | 
Nc1nn2c(-c3cccc(Cl)c3)nnc2s1 [CBK288122] | 73.2 | 
O=c1[nH]c2ncc(-c3ccco3)nc2n1Cc1ccc(F)c(Cl)c1 [CBK064393] | 108 | 
Cc1cc(C)n2ncc(C(=O)N3CCCC3c3ccsc3)c2n1 (stereo not drawn) [CBK305616] | 94.6 | 
CCCn1c(SCC(=O)NCCN2C(=O)CSC2=O)n[nH]c1=O [CBK296976] | 89.2 | 
COC1CCCC(C(=O)N2CCC(c3onc4c3CCC4)CC2)C1 (stereo not drawn) [CBK285519] | 103 | 
COc1cc2[nH]c(=S)n3nc(-c4ccncc4)nc3c2cc1OC [CBK288559] | 104 | 

Structure (SMILES) | viability at 28.5 h, 10 µM [%] | viability at 28.5 h, 10 µM (bulk resorufin, single well) [%]
Cc1cccc(OCc2nc3c4c5c(sc4ncn3n2)CCCCC5)c1C [CBK265284] | 104 | 
O=C(c1n[nH]c2ccccc12)N1CCc2ccccc21 [CBK200282] | 90.6 | 
O=C(CC1NC(=O)NC1=O)Nc1ccccc1 (stereo not drawn) [CBK267331] | 90.4 | 
CN1CCOc2cc(S(=O)(=O)Nc3cccc(-c4cnco4)c3)ccc21 [CBK067119] | 82.9 | 
c1ccc(CCN2CCC(Oc3cncc(OCC4COc5ccccc5O4)n3)C2)cc1 (stereo not drawn) [CBK084382] | 93 | 
Cc1cc2c(o1)c1cnn(CC(=O)N(C(C)C)C(C)C)c(=O)c1n2C [CBK282392] | 83.2 | 
Cc1ccc(Cl)cc1N(CC(=O)O)S(=O)(=O)c1ccccc1 [CBK262424] | 93 | 
O=C1c2ccccc2C(=O)N1CCCc1nc2c3c4c(sc3ncn2n1)CCCCC4 [CBK268540] | 93.4 | 
COc1ccccc1Cc1cccc(C2CCCN2C(=O)c2ccc(F)cc2)n1 (stereo not drawn) [CBK286239] | 99.1 | 
Clc1ccc(COc2cccc(CNCCN3CCOCC3)c2)cc1 [CBK278227C] | 85 | 
COc1ccc(C(C)C)cc1-c1cn2ccnc2c(NCc2ccco2)n1 [CBK037269] | 98.2 | 
Cc1cc(=O)[nH]c(C)c1C(=O)N1CCC(N2CCCC(CO)C2)CC1 (stereo not drawn) [CBK307158] | 103 | 
CCc1nc2cc(NC(=O)c3cc(C4CC4)nn3C)ccc2n1C [CBK283275] | 85.8 | 
O=c1n(CC2CCCCC2)c2ccccc2n1S(=O)(=O)CCc1cccc2ccccc12 [CBK106525] | 101 | 
COc1ccc(-n2ncc3c2CC(C)(C)CC3NS(C)(=O)=O)cc1 (stereo not drawn) [CBK306759] | 88.7 | 
COC(=O)Nc1ccc(S(=O)(=O)N2CCCC(C(=O)O)C2)cc1 (stereo not drawn) [CBK265364] | 98.5 | 
CNC(=O)N(O)C1N(NC(=O)Nc2ccccc2)C(=S)SC1(C)C (stereo not drawn) [CBK261005] | 94.9 | 
Brc1ccc2c(c1)[C@H]1C=CC[C@H]1[C@@H](c1ccccc1)N2 [CBK303238] | 89 | 
COCCn1c(CN2CCOCC2)nc2c1c(=O)[nH]c(=O)n2C [CBK269890] | 100 | 
CCC1(CC)OC(NC(C)c2ccccc2F)=NC1=O (stereo not drawn) [CBK132018] | 87.1 | 
CS(=O)(=O)N(CC(=O)N1CCN(C(c2ccccc2)c2ccccc2)CC1)c1cccc(F)c1 [CBK266330] | 105 | 

— paper PMC12040169 (PLOS Biology, 2025)
